Source: ChEMBL document CHEMBL4507276 (2021)

Tests used:
[1] = system: Tyrosine-protein kinase ABL1 (Homo sapiens), P00519 [F317L]; settings: Compound concentration 1000.0 nM
[2] = system: Tyrosine-protein kinase ABL1 (Homo sapiens), P00519 [Y253F]; settings: Compound concentration 1000.0 nM
[3] = biological target: Protein-tyrosine kinase 6 (Homo sapiens) (UniProt Q13882); settings: Compound concentration 1000.0 nM
[4] = biological target: Calcium/calmodulin-dependent protein kinase kinase 2 (Homo sapiens) (UniProt Q96RR4); settings: Compound concentration 1000.0 nM
Calcium/calmodulin-dependent protein kinase kinase 2 (Homo sapiens), sequence (Q96RR4 2-588 limits assumed): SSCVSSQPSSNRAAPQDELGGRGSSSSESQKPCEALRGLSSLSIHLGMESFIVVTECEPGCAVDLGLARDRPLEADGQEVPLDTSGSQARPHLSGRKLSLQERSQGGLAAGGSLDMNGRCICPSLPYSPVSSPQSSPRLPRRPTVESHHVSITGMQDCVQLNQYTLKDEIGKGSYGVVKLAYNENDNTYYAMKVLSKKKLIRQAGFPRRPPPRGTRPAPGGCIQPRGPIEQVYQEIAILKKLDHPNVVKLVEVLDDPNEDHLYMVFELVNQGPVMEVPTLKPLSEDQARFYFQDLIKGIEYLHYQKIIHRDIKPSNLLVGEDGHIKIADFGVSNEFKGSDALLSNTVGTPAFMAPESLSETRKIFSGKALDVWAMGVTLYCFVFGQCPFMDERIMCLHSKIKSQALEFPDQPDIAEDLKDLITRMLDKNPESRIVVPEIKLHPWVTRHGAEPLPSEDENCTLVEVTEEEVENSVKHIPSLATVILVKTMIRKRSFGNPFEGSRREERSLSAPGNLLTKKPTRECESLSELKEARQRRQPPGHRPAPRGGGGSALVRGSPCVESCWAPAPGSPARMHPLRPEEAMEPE

[5] = biological target: Homeodomain-interacting protein kinase 3 (Homo sapiens) (UniProt Q9H422); settings: Compound concentration 1000.0 nM
[6] = biological target: Mast/stem cell growth factor receptor Kit (Homo sapiens) (UniProt P10721); settings: Compound concentration 1000.0 nM
[7] = biological target: MAP kinase-interacting serine/threonine-protein kinase 1 (Homo sapiens) (UniProt Q9BUB5); settings: Compound concentration 1000.0 nM
[8] = biological target: Myosin light chain kinase (Homo sapiens) (UniProt Q32MK0); settings: Compound concentration 1000.0 nM
Myosin light chain kinase (Homo sapiens), sequence (Q32MK0 whole entry): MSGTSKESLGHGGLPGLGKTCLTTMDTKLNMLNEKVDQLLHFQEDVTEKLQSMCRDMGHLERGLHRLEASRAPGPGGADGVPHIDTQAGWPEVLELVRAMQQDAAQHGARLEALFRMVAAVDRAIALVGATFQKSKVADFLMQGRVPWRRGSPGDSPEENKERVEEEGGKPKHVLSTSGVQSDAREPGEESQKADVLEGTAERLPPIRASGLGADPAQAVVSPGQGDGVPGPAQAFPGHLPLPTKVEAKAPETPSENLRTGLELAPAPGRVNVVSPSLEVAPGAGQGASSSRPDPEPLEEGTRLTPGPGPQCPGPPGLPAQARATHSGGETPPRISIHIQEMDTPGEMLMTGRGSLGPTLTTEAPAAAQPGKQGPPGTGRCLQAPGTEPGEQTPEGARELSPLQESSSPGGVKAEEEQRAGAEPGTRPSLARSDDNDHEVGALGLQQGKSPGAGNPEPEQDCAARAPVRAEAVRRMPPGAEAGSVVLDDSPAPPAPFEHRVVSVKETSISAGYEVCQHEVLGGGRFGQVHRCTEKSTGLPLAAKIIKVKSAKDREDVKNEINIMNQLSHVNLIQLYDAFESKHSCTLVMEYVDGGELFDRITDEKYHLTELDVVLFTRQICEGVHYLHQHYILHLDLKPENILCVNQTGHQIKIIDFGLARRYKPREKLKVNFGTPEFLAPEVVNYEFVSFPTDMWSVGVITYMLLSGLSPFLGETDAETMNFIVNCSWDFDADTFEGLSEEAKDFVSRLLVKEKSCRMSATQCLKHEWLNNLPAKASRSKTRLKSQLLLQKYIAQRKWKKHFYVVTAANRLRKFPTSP

[9] = biological target: T1, Serine/threonine-protein kinase 3 (Homo sapiens) (UniProt Q13188); settings: Compound concentration 1000.0 nM
T1 sequence (whole entry): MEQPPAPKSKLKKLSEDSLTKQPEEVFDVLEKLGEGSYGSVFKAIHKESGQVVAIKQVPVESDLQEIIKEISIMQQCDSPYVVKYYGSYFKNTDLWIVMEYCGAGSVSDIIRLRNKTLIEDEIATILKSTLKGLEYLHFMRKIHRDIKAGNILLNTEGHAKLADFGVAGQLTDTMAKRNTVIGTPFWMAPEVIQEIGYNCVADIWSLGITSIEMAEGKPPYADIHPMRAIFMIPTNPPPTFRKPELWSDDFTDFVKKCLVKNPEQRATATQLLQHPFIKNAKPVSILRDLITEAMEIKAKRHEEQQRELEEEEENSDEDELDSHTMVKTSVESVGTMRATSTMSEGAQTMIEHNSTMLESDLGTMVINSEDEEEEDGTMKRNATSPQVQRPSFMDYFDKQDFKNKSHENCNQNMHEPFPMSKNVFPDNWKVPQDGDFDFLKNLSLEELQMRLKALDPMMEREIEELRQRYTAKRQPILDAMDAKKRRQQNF

[10] = biological target: Serine/threonine-protein kinase 24 (Homo sapiens) (UniProt Q9Y6E0); settings: Compound concentration 1000.0 nM
Serine/threonine-protein kinase 24 (Homo sapiens), sequence (Q9Y6E0 whole entry, looked up): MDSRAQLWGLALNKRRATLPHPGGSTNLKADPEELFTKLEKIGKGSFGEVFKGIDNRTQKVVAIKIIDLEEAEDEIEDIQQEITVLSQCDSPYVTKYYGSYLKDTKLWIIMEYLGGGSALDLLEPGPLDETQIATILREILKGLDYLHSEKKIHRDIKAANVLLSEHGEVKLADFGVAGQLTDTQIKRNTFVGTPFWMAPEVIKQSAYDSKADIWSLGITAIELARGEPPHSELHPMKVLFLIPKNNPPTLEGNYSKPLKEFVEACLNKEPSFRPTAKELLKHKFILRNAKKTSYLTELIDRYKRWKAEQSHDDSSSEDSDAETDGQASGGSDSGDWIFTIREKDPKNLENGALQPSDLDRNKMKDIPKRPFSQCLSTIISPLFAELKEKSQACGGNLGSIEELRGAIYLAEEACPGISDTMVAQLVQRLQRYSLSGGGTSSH

[11] = biological target: T2, Serine/threonine-protein kinase Nek2 (Homo sapiens) (UniProt P51955); settings: Compound concentration 1000.0 nM
T2 sequence (whole entry): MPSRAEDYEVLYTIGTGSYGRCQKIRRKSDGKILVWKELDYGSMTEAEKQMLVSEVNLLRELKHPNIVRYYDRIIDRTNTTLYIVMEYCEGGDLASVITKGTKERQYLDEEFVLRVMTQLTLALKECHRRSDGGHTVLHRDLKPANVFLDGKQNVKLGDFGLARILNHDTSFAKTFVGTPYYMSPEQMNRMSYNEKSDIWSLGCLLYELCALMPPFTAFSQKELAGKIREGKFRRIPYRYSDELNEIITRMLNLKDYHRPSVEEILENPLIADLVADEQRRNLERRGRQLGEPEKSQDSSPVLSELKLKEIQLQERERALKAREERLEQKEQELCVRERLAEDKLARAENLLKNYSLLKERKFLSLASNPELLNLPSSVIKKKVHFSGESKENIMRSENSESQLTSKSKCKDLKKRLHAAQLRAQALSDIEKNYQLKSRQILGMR

[12] = biological target: Serine/threonine-protein kinase Nek3 (Homo sapiens) (UniProt P51956); settings: Compound concentration 1000.0 nM
Serine/threonine-protein kinase Nek3 (Homo sapiens), sequence (P51956 whole entry): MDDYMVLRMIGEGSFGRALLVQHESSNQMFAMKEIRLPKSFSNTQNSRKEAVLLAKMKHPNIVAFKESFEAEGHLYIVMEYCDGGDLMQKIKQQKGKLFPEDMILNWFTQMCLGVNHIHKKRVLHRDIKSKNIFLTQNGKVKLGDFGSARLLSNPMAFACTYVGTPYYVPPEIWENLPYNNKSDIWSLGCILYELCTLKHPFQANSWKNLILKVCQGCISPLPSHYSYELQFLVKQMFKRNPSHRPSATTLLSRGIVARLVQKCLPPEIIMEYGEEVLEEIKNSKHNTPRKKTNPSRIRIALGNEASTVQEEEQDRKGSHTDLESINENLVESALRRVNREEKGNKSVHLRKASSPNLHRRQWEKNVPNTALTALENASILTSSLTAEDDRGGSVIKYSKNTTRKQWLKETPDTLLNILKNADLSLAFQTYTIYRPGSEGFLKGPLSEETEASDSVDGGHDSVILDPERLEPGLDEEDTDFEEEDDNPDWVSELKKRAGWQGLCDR

[13] = biological target: Serine/threonine-protein kinase PAK 2 (Homo sapiens) (UniProt Q13177); settings: Compound concentration 1000.0 nM
Serine/threonine-protein kinase PAK 2 (Homo sapiens), sequence (Q13177 whole entry): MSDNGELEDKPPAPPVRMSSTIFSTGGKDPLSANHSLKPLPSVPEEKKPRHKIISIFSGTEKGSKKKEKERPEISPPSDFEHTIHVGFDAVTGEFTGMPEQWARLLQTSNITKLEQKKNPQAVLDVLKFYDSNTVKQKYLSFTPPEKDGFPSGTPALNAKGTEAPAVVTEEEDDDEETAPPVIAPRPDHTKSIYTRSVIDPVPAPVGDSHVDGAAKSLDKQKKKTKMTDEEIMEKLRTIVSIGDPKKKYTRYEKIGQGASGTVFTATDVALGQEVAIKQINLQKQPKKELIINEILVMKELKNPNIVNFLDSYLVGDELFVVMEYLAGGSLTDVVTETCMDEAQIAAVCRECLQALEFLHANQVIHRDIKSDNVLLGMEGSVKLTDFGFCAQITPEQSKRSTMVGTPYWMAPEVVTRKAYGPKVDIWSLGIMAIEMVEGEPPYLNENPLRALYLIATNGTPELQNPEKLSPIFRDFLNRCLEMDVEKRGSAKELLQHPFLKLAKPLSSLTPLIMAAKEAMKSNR

[14] = biological target: Serine/threonine-protein kinase PAK 6 (Homo sapiens) (UniProt Q9NQU5); settings: Compound concentration 1000.0 nM
[15] = biological target: Serine/threonine-protein kinase PLK4 (Homo sapiens) (UniProt O00444); settings: Compound concentration 1000.0 nM
[16] = biological target: Ribosomal protein S6 kinase alpha-3 (Homo sapiens) (UniProt P51812); settings: Compound concentration 1000.0 nM
Ribosomal protein S6 kinase alpha-3 (Homo sapiens), sequence (P51812 whole entry): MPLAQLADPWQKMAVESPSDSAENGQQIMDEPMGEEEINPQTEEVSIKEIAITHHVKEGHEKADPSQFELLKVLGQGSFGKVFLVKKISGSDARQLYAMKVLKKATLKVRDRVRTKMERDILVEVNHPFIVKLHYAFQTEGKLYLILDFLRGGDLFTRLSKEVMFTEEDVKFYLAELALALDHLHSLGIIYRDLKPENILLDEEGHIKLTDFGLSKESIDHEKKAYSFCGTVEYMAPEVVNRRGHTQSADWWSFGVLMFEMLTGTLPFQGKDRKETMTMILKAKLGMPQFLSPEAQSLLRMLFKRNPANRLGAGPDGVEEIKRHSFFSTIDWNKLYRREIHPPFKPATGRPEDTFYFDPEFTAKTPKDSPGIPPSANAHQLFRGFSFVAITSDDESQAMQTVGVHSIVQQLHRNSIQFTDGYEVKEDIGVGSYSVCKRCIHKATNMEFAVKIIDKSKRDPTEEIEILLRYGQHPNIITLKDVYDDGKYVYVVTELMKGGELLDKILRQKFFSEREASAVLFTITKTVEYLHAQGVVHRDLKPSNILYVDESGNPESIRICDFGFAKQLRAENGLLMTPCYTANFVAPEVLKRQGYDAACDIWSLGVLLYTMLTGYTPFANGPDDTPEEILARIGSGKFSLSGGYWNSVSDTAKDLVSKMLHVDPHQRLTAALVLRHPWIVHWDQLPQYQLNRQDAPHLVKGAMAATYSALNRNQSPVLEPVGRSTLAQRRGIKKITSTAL

[17] = biological target: Ribosomal protein S6 kinase alpha-6 (Homo sapiens) (UniProt Q9UK32); settings: Compound concentration 1000.0 nM
Ribosomal protein S6 kinase alpha-6 (Homo sapiens), sequence (Q9UK32 whole entry): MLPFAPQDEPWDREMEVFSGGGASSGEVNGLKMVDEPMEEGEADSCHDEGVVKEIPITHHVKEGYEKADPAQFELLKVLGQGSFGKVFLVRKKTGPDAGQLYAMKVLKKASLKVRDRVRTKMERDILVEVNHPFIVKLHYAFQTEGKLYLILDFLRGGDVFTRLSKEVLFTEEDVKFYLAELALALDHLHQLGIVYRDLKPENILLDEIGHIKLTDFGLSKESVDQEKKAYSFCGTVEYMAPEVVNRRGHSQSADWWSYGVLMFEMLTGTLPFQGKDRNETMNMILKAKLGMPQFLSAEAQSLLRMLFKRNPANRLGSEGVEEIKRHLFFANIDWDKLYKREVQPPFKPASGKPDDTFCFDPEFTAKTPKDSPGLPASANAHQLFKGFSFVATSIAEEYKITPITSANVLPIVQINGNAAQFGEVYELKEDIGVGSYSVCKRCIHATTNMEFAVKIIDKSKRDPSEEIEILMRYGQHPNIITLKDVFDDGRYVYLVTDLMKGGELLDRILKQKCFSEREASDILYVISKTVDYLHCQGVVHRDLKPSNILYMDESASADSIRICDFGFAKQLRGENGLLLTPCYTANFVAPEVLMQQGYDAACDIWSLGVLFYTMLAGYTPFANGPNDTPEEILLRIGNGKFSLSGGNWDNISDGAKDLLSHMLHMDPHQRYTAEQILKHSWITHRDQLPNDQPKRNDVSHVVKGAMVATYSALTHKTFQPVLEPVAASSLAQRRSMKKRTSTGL

[18] = biological target: T3, Serine/threonine-protein kinase Sgk3 (Homo sapiens) (UniProt Q96BR1); settings: Compound concentration 1000.0 nM
T3 sequence (whole entry): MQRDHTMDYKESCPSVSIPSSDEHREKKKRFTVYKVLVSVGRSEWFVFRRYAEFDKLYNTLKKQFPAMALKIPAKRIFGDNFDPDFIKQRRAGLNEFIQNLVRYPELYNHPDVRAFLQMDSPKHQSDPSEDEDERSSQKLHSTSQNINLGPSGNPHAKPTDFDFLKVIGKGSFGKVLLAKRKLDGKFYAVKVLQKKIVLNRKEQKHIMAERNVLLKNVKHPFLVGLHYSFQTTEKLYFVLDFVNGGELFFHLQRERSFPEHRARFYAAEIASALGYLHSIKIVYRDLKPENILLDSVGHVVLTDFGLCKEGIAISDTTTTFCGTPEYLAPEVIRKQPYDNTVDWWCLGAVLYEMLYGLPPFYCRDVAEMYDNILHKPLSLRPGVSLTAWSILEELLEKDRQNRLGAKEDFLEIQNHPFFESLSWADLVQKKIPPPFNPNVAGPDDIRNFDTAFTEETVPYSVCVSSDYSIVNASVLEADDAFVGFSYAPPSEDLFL

[19] = biological target: T4, Muscarinic acetylcholine receptor M2 (Homo sapiens) (UniProt P08172); settings: Compound concentration 10.0 uM
T4 sequence (whole entry): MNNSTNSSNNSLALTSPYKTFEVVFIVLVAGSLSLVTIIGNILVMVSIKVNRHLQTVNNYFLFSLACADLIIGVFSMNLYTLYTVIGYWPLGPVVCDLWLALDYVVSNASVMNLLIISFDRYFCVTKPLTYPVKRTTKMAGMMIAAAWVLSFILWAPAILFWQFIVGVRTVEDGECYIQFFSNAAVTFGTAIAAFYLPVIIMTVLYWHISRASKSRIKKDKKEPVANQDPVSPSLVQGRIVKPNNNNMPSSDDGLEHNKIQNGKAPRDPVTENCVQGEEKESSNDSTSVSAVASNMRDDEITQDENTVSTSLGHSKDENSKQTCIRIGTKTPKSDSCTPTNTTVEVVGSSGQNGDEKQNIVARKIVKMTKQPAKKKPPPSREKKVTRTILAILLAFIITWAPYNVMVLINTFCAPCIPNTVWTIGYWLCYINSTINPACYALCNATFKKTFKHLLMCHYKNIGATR

Protein-tyrosine kinase 6 (Homo sapiens), sequence (Q13882 whole entry, looked up): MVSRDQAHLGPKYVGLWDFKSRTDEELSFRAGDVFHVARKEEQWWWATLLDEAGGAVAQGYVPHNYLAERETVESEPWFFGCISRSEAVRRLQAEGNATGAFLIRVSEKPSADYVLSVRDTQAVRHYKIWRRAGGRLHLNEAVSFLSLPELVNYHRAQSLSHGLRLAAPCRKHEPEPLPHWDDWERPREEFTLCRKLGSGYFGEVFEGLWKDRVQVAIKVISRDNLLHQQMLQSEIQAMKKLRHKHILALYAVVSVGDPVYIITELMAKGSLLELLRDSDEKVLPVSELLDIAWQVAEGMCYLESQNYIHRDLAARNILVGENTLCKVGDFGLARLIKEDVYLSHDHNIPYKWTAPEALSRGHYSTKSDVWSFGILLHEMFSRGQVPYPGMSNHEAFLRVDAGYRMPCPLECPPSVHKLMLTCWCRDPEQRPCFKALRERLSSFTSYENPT

CN(C)C(=O)Cn1cc(-c2nc(C3(c4ccc(-c5cnc(N)nc5)cc4)CC3)no2)cn1 [BI 0153]
inactive: residual activity [1] 55% | residual activity [2] 98% | residual activity [3] 100% | residual activity [4] 100% | residual activity [5] 71% | residual activity [6] 77% | residual activity [7] 85% | residual activity [8] 100% | residual activity [9] 100% | residual activity [10] 100% | residual activity [11] 100% | residual activity [12] 57% | residual activity [13] 100% | residual activity [14] 100% | residual activity [15] 100% | residual activity [16] 92% | residual activity [17] 100% | residual activity [18] 75% | inhibition [19] -0.311%

CN(C)C(=O)Cn1cc(-c2nc([C@@](C)(c3ccc(-c4cnc(N)nc4)cc3)C3CC3)no2)cn1 [BI 665915]
inactive: residual activity [1] 66% | residual activity [2] 76% | residual activity [3] 100% | residual activity [4] 100% | residual activity [5] 97% | residual activity [6] 86% | residual activity [7] 85% | residual activity [8] 100% | residual activity [9] 100% | residual activity [10] 100% | residual activity [11] 97% | residual activity [12] 87% | residual activity [13] 90% | residual activity [14] 100% | residual activity [15] 74% | residual activity [16] 83% | residual activity [17] 100% | residual activity [18] 76% | inhibition [19] -7.53%
